What follows are compounds tested against human Cav2.2 (Homo sapiens, UniProt Q00975) (assay: Assessment of calcium channel activity using FLIPR (Ca2+ influx in IMR32 cells)). Conditions: not given.
Type: cell-based
Outline: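 IC50 values derive from nonlinear sigmoidal fitting of percent inhibition, relative to inhibitor-free activity, of Ca2+ influx read by FLIPR. Cells were IMR32 human neuroblastoma, plated at 1−1.2×10^5 per well and grown 48 h at 37 °C.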

Chain of human Cav2.2 (Q00975 whole entry): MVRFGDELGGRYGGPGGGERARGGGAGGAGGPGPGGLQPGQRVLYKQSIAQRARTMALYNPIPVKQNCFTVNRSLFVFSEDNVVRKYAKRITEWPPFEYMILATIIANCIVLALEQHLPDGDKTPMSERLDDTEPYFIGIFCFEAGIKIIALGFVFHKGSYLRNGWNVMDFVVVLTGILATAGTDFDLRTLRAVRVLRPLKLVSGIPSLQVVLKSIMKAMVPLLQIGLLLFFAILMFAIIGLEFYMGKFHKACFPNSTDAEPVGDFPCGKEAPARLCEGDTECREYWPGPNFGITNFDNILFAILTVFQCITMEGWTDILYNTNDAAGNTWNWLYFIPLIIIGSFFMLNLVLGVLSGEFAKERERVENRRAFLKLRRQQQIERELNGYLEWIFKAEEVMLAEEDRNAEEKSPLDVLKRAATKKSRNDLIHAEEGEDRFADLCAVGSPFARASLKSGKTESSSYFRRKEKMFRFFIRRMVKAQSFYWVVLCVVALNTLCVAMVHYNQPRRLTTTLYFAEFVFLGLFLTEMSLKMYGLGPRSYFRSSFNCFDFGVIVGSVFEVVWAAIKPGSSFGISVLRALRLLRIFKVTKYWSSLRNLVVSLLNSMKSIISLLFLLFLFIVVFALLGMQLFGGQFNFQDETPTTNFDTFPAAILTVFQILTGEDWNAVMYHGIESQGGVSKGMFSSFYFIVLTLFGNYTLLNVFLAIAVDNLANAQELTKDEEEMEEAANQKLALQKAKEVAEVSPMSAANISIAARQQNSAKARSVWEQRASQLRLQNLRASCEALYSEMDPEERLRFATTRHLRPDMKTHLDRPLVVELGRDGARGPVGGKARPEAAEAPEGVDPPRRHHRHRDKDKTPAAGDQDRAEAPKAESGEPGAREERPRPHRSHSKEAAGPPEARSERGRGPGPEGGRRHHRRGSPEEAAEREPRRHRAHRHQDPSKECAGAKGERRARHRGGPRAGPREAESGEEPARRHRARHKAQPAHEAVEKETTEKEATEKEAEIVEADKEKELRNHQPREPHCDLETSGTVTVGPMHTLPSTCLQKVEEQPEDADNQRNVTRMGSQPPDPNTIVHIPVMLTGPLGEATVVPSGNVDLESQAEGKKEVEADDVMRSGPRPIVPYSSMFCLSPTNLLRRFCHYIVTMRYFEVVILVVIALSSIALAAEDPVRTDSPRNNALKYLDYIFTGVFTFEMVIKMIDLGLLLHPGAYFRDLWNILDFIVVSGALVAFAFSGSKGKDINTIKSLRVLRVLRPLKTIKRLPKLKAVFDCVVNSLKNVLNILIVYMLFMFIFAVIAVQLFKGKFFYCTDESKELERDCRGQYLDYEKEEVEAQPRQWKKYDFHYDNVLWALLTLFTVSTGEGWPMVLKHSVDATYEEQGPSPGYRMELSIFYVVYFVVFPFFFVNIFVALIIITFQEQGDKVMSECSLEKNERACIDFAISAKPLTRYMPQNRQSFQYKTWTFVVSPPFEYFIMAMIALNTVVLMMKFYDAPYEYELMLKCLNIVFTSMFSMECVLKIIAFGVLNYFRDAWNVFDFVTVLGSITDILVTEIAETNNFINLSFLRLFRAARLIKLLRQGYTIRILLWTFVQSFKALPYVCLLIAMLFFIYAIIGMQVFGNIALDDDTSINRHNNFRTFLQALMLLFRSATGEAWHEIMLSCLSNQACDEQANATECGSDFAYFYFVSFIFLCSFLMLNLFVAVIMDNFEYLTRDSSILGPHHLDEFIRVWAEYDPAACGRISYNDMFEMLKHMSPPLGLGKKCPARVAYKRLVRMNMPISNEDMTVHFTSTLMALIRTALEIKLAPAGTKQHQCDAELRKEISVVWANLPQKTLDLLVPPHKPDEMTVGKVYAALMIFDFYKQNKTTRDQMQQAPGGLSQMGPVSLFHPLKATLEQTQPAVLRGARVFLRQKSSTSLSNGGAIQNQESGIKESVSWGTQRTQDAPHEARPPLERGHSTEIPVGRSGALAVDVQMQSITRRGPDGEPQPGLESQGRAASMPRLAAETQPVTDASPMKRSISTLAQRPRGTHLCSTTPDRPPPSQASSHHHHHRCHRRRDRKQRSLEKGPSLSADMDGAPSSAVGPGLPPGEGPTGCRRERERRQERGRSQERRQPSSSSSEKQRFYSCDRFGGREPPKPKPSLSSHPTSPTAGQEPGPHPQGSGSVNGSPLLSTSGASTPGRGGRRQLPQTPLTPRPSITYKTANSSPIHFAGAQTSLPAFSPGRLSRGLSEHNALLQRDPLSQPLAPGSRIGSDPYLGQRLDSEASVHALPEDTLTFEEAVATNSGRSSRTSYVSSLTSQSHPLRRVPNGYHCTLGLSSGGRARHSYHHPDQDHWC
Chain of human Cav2.2 (P54289 25-956 partner limits assumed): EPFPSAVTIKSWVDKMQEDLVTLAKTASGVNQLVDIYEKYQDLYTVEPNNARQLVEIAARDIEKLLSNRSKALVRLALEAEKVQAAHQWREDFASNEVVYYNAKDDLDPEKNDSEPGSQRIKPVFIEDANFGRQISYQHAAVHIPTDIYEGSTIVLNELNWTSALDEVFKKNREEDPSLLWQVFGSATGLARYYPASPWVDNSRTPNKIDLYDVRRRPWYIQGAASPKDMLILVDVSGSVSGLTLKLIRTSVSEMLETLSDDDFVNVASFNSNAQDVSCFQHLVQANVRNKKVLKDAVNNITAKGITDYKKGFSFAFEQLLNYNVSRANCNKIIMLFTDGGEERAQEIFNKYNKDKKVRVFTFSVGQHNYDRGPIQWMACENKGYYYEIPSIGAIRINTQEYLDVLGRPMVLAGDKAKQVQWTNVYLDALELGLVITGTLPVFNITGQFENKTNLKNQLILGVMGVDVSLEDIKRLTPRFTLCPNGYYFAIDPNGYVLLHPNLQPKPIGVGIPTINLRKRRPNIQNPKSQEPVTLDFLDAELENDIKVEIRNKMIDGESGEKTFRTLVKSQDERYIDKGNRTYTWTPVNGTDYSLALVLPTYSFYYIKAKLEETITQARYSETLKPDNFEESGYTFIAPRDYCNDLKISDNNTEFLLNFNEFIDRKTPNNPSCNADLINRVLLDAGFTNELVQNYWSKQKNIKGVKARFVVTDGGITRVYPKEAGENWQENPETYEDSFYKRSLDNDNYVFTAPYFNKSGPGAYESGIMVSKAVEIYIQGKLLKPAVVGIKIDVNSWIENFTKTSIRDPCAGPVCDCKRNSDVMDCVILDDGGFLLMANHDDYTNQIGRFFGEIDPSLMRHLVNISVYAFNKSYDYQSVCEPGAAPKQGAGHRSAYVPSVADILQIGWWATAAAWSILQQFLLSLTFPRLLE
Chain of human Cav2.2 (P54289 957-1103 partner limits assumed): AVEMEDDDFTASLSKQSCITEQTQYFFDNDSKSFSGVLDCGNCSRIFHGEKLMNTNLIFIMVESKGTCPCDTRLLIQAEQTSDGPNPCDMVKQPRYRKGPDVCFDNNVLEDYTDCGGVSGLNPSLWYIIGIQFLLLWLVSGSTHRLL
Chain of human Cav2.2 (P54284 whole entry partner): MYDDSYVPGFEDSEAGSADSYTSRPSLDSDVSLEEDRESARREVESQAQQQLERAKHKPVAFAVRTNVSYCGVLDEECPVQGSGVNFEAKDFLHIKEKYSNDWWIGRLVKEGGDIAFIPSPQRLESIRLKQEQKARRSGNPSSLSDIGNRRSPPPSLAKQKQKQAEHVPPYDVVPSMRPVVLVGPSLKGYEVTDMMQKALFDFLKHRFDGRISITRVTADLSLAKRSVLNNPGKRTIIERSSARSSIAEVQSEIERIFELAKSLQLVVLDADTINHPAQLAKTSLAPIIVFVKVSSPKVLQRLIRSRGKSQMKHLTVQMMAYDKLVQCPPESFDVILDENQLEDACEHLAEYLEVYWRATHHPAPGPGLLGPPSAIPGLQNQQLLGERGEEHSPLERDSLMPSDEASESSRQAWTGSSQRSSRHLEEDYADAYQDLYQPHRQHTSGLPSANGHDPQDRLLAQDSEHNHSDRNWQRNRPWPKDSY

IC50 [µM]	SMILES
3.33	Fc1ccc2[nH]c(CN[C@H]3CC[C@@H]4CN(c5ccc(C(F)(F)F)cn5)C[C@@H]43)cc2c1 [Example 614, (3aR,4S,6aS)-N-[(5-fluoro-1H-indol-2-yl)methyl]-2-[5-(trifluoromethyl)pyridin-2-yl]octahydrocyclopenta[c]pyrrol-4-amine]
> 30	CCC[C@H](NC)C(=O)N[C@H]1CC[C@@H]2CN(S(=O)(=O)c3ccco3)C[C@@H]21 [Example 547, N^1-[(3aR,4S,6aS)-2-(2-furylsulfonyl)octahydrocyclopenta[c]pyrrol-4-yl]-N^2-methyl-L-norvalinamide]
> 5.2	CC(C)C[C@@H](C(=O)N[C@@H]1CC[C@H]2CN(S(=O)(=O)C3CC3)C[C@H]21)N1CCCC1 [Example 347, (2S)-N-[(3aS,4R,6aR)-2-(cyclopropylsulfonyl)octahydrocyclopenta[c]pyrrol-4-yl]-4-methyl-2-pyrrolidin-1-ylpentanamide]
26.2	N#Cc1ccc(N2C[C@H]3CC[C@H](NC(=O)[C@@H]4C[C@@H](F)CN4)[C@H]3C2)cc1 [Example 633, (4R)-N-[(3aR,4S,6aS)-2-(4-cyanophenyl)octahydrocyclopenta[c]pyrrol-4-yl]-4-fluoro-L-prolinamide]
2.36	CN[C@H](CC(C)C)C(=O)N[C@@H]1CC[C@H]2CN(c3ccc(C(F)(F)F)cc3)C[C@H]21 [Example 768, N^2-methyl-N-{(3aS,4R,6aR)-2-[4-(trifluoromethyl)phenyl]octahydrocyclopenta[c]pyrrol-4-yl}-D-leucinamide]
0.46	O=C(N[C@H]1CC[C@H]2CN(Cc3cccc(C(F)(F)F)c3)C[C@H]21)C(C1CCCCC1)C1CCCCC1 [Example 54, 2,2-dicyclohexyl-N-{(3aS,4S,6aR)-2-[3-(trifluoromethyl)benzyl]octahydrocyclopenta[c]pyrrol-4-yl}acetamide]
1.86	CC(C)(C)NC(=O)N[C@H]1CC[C@@H]2CN(c3cccc(OC(F)(F)F)c3)C[C@@H]21 [Example 779, 1-tert-butyl-3-{(3aR,4S,6aS)-2-[3-(trifluoromethoxy)phenyl]octahydrocyclopenta[c]pyrrol-4-yl}urea]
4.22	Fc1ccc2[nH]c(CN[C@H]3CC[C@@H]4CN(c5cccc(C(F)(F)F)c5)C[C@@H]43)cc2c1 [Example 616, (3aR,4S,6aS)-N-[(5-fluoro-1H-indol-2-yl)methyl]-2-[3-(trifluoromethyl)phenyl]octahydrocyclopenta[c]pyrrol-4-amine]
11	CC(C)C(C(=O)N[C@@H]1CC[C@H]2CN(Cc3ccccc3)C[C@H]21)C(C)C [Example 235, N-[(3aS,4R,6aR)-2-benzyloctahydrocyclopenta[c]pyrrol-4-yl]-2-isopropyl-3-methylbutanamide]
1.44	Cn1c(CN[C@H]2CC[C@@H]3CN(c4cccc(C(F)(F)F)n4)C[C@@H]32)cc2ccccc21 [Example 720, (3aR,4S,6aS)-N-[(1-methyl-1H-indol-2-yl)methyl]-2-[6-(trifluoromethyl)pyridin-2-yl]octahydrocyclopenta[c]pyrrol-4-amine]
20.5	O=C(N[C@H]1CC[C@@H]2CN(c3cc(C(F)(F)F)ccn3)C[C@@H]21)[C@@H]1C[C@@H](F)CN1 [Example 637, (4R)-4-fluoro-N-{(3aR,4S,6aS)-2-[4-(trifluoromethyl)pyridin-2-yl]octahydrocyclopenta[c]pyrrol-4-yl}-L-prolinamide]
0.95	CCCC(CCC)C(=O)N[C@H]1CC[C@H]2CN(Cc3cccc(C(F)(F)F)c3)C[C@H]21 (relative stereo) [Example 126, 2-propyl-N-{(3aS*,4S*,6aR*)-2-[3-(trifluoromethyl)benzyl]octahydrocyclopenta[c]pyrrol-4-yl}pentanamide]
> 30	O=C(N[C@@H]1CC[C@H]2CN(Cc3ccccc3)C[C@H]21)[C@@H]1CCCCN1 [Example 350, (2S)-N-[(3aS,4R,6aR)-2-benzyloctahydrocyclopenta[c]pyrrol-4-yl]piperidine-2-carboxamide]
2.01	CC(C)CN[C@H]1CC[C@@H]2CN(c3cccc(C(F)(F)F)n3)C[C@@H]21 [Example 610, (3aR,4S,6aS)-N-isobutyl-2-[6-(trifluoromethyl)pyridin-2-yl]octahydrocyclopenta[c]pyrrol-4-amine]
4.52	O=C(N[C@H]1CC[C@@H]2CN(c3ccc(F)c(C(F)(F)F)c3)C[C@@H]21)[C@@H]1C[C@@H](F)CN1 [Example 626, (4R)-4-fluoro-N-{(3aR,4S,6aS)-2-[4-fluoro-3-(trifluoromethyl)phenyl]octahydrocyclopenta[c]pyrrol-4-yl}-L-prolinamide]
8.88	CCC[C@H](NC)C(=O)N[C@@H]1CC[C@H]2CN(Cc3ccc(C(F)(F)F)cc3)C[C@H]21 [Example 371, N^2-methyl-N^1-{(3aS,4R,6aR)-2-[4-(trifluoromethyl)benzyl]octahydrocyclopenta[c]pyrrol-4-yl}-L-norvalinamide]
2.8	O=C(Nc1ccc(F)c(Cl)c1)N[C@H]1CC[C@@H]2CN(c3cccc(C(F)(F)F)n3)C[C@@H]21 [Example 714, 1-(3-chloro-4-fluorophenyl)-3-{(3aR,4S,6aS)-2-[6-(trifluoromethyl)pyridin-2-yl]octahydrocyclopenta[c]pyrrol-4-yl}urea]
0.7	O=C(N[C@H]1CC[C@@H]2CN(c3cccc(C(F)(F)F)n3)C[C@@H]21)c1cc(Cl)c[nH]1 [Example 575, 4-chloro-N-{(3aR,4S,6aS)-2-[6-(trifluoromethyl)pyridin-2-yl]octahydrocyclopenta[c]pyrrol-4-yl}-1H-pyrrole-2-carboxamide]

Same assay, conditions: read-out: IC50 (μM) or percent inhibition (* indicates 3 minute incubation, otherwise 60 minute); IC50; 60 minute pre-incubation with compound; IMR32 cells, 80 mM KCl depolarization

IC50 [µM]	SMILES
3.75	CCC[C@H](NC)C(=O)N[C@H]1CC[C@@H]2CN(S(=O)(=O)c3cc(C(F)(F)F)cc(C(F)(F)F)c3)C[C@@H]21 [Example 538, N^1-((3aR,4S,6aS)-2-{[3,5-bis(trifluoromethyl)phenyl]sulfonyl}octahydrocyclopenta[c]pyrrol-4-yl)-N^2-methyl-L-norvalinamide]
4.59	CN[C@H](CC(C)C)C(=O)N[C@@H]1CC[C@H]2CN(Cc3cccc(C(F)(F)F)c3)C[C@H]21 (relative stereo) [Example 163, N^2-methyl-N^1-{(3aS*,4R*,6aR*)-2-[3-(trifluoromethyl)benzyl]octahydrocyclopenta[c]pyrrol-4-yl}-D-leucinamide]
1.04	O=C(CCC(c1ccc(F)cc1)c1ccc(F)cc1)N[C@@H]1CC[C@H]2CN(Cc3cccc(C(F)(F)F)c3)C[C@H]21 (relative stereo) [Example 144, 4,4-bis(4-fluorophenyl)-N-{(3aS*,4R*,6aR*)-2-[3-(trifluoromethyl)benzyl]octahydrocyclopenta[c]pyrrol-4-yl}butanamide]
0.79	O=C(N[C@@H]1CC[C@H]2CN(Cc3cccc(C(F)(F)F)c3)C[C@H]21)C(c1ccc(F)cc1)c1ccc(F)cc1 (relative stereo) [Example 146, 2,2-bis(4-fluorophenyl)-N-{(3aS*,4R*,6aR*)-2-[3-(trifluoromethyl)benzyl]octahydrocyclopenta[c]pyrrol-4-yl}acetamide]
2.03	CC(C)C[C@H](NS(=O)(=O)C1CC1)C(=O)N[C@@H]1CC[C@H]2CN(Cc3cccc(C(F)(F)F)c3)C[C@H]21 [Example 172, N^2-(cyclopropylsulfonyl)-N^1-{(3aS,4R,6aR)-2-[3-(trifluoromethyl)benzyl]octahydrocyclopenta[c]pyrrol-4-yl}-L-leucinamide]
2.27	O=S(=O)(N[C@@H]1CC[C@H]2CN(Cc3cc(C(F)(F)F)cc(C(F)(F)F)c3)C[C@H]21)c1cccc(C(F)(F)F)c1 [Example 192, N-{(3aS,4R,6aR)-2-[3,5-bis(trifluoromethyl)benzyl]octahydrocyclopenta[c]pyrrol-4-yl}-3-(trifluoromethyl)benzenesulfonamide]
1.12	CC(C)C(C(=O)N[C@H]1CC[C@@H]2CN(CCCCC(c3ccc(F)cc3)c3ccc(F)cc3)C[C@@H]21)c1ccccc1 (stereo partly drawn) [Example 119, N-{(3aR,4S,6aS)-2-[5,5-bis(4-fluorophenyl)pentyl]octahydrocyclopenta[c]pyrrol-4-yl}-3-methyl-2-phenylbutanamide]
0.26	CC(C)(C)C[C@H](NCC1CC1)C(=O)N[C@H]1CC[C@@H]2CN(c3cccc(C(F)(F)F)n3)C[C@@H]21 [Example 479, N^2-(cyclopropylmethyl)-4-methyl-N^1-{(3aR,4S,6aS)-2-[6-(trifluoromethyl)pyridin-2-yl]octahydrocyclopenta[c]pyrrol-4-yl}-L-leucinamide]
0.51	CC(C)(C)C(C(=O)N[C@@H]1CC[C@H]2CN(Cc3cccc(C(F)(F)F)c3)C[C@H]21)c1ccccc1 (relative stereo) [Example 147, 3,3-dimethyl-2-phenyl-N-{(3aS*,4R*,6aR*)-2-[3-(trifluoromethyl)benzyl]octahydrocyclopenta[c]pyrrol-4-yl}butanamide]
1.67	O=C(N[C@@H]1CC[C@H]2CN(CCC(c3ccc(F)cc3)c3ccc(F)cc3)C[C@H]21)C(C1CCCCC1)C1CCCCC1 [Example 80, N-{(3aS,4R,6aR)-2-[3,3-bis(4-fluorophenyl)propyl]octahydrocyclopenta[c]pyrrol-4-yl}-2,2-dicyclohexylacetamide]
3.83	CCC[C@H](NC)C(=O)N[C@H]1CC[C@@H]2CN(S(=O)(=O)c3ccc(C(F)(F)F)cc3)C[C@@H]21 [Example 405, N^2-methyl-N^1-((3aR,4S,6aS)-2-{[4-(trifluoromethyl)phenyl]sulfonyl}octahydrocyclopenta[c]pyrrol-4-yl)-L-norvalinamide]
0.89	CC(C)C[C@H](NC(=O)OC1CCCC1)C(=O)N[C@@H]1CC[C@H]2CN(Cc3cccc(C(F)(F)F)c3)C[C@H]21 [Example 179, cyclopentyl(S)-4-methyl-1-oxo-1-((3aS,4R,6aR)-2-(3-(trifluoromethyl)benzyl)octahydrocyclopenta[c]pyrrol-4-ylamino)pentan-2-ylcarbamate]

— patent US8691865B2 (AbbVie Inc., priority 2008, dated 2014)
